Measurements as given in patent US20250269018A1, “COMBINED CANCER THERAPY WITH AN EPITHELIAL CELL ADHESION MOLECULE (EPCAM) INHIBITOR AND A HEPATOCYTE GROWTH FACTOR RECEPTOR (HGFR) INHIBITOR” (ACADEMIA SINICA, priority 2021, published 2025).

System: GSK3β, active β-catenin and Snail
Experiment: Western blotting of GSK3β, active β-catenin, Snail and EMT proteins in HCT116 cells
Type: cell-based, human
Conditions: HCT116
Protocol: FIGS. 4A to 4L. EpEX induces EMT and invasion by stabilizing β-catenin and Snail through decreasing GSK3β activity. (FIG. 4A) The protein expression of EMT markers and regulators was detected by Western blotting in Wild-type (WT) or EpCAM knockout (KO) HCT116 cells after EpEX treatment. (FIG. 4B) Cell invasion was examined by Transwell chamber assay with matrigel. (FIG. 4C) WT or KO HCT116 and HT29 cells were starved for 16 h, then treated with 0.5 nM of HGF with 2% FBS for 24 h. EMT-related protein expression (E-cadherin, vimentin, and Snail) was examined by Western blotting. (FIG. 4D) WT or KO HCT116 and HT29 cells were treated with HGF (0.5 nM) for 24 h. Invasion by HCT116 and HT29 cells was examined by Transwell chamber assay with matrigel. (FIG. 4E) HCT116 and HT29 cells were starved for 16 h, then treated with 0.5 nM of HGF with 2% FBS for 24 h. EMT-related protein expression (E-cadherin, Vimentin, and Snail) was examined by Western blotting. (FIG. 4F) HCT116 and HT29 cells were starved for 16 h, then treated with 0.5 nM of HGF with 2% FBS for 24 h. Cell invasion was assessed by a Transwell assay with matrigel. (FIG. 4G) HCT116 cells after shLuc and shHGFR treatment were treated with 50 nM of EpEX-His. HCT116 cells after shLuc and shHGFR treatment were treated with 50 nM of EpEX-His with 2% FBS for 24 h. EMT-related protein expression (E-cadherin, Vimentin, and Snail) was examined by Western blotting. (FIG. 4H) Cell invasion was examined by Transwell chamber assay with matrigel. (FIG. 4I) Starved HCT116 cells were treated SU (10 μM) for 1 h, followed by treatment with EpEX-His (50 nM) for 24 h. Phosphorylated GSK3β, active-β-catenin, and Snail were detected by Western blotting. (FIG. 4J) HCT116 cells were starved for 16 h, then treated with 50 nM EpEX-His for 24 min. AKT inhibitor LY294002 (25 μM), ERK inhibitor U0126 (20 μM), or PF-562271 (10 μM) were applied 1 h before EpEX treatment. Protein expression of phosphorylated GSK3β and Snail was examined by Western blotting. (FIG. 4K) HCT116 cells were starved for 16 h, then treated with 50 nM EpEX, and SU (10 μM), LY (25 μM), UO (20 μM) or PF (10 μM). Cell invasion was examined by Transwell chamber assay with matrigel. (FIG. 4L) Protein expression was analyzed by Western blotting in EpEX-His (50 nM) treated HCT116 cells after treatment with or without 2 μM GSK3β inhibitor (BIO) for 24 h. Quantification of the normalized protein expression in the right panel.
FIGS. 5A to 5I. EpEX promotes Snail protein stability through inhibition of ubiquitination-mediated proteasomal degradation. (FIG. 5A) The gene expression of EMT markers and regulators was detected by qRT-PCR in Wild-type (WT) or EpCAM knockout (KO) of HCT116 and HT29 cells. (FIG. 5B) Stability of Snail protein in WT or KO of HCT116 cells. Cells were treated with cyclohexamide (CHX) 100 μg/ml at the indicated intervals and subjected to Western blotting. (FIG. 5C) The protein expression of Snail was analyzed in WT or KO HCT116 cells by treating with or without […] MG132 (proteasome inhibitor) for 6 h, followed by Western blotting. (FIG. 5D) WT or KO HCT116 cells were treated with 10 μM MG132 for 6 h before cell collection. The lysates were subjected to immunoprecipitation using anti-Snail antibody and input. Western blotting was performed with the indicated antibodies to detect ubiquitinated Snail protein. (FIG. 5E) Stability of Snail protein in HCT116 cells after EpEX (50 nM) treatment for 24 h. Cells were treated with cyclohexamide (CHX; 100 μg/ml) for the indicated intervals and then subjected to Western blotting. (FIG. 5F) Expression of the gene encoding SNAIL was detected by qRT-PCR in HCT116 cells after EpEX (50 nM) treatment for 24 h. (FIG. 5G) The protein expression of Snail in HCT116 was analyzed cells by Western blotting after EpEX (50 nM) treatment for 24 h, and treatment with or without 10 μM MG132 (proteasome inhibitor) for 6 h. […]

[1] = SU 10 μM 1 h, then EpEX-His 50 nM 24 h, FIG. 4I
[2] = LY294002 25 μM, U0126 20 μM or PF-562271 10 μM 1 h before 50 nM EpEX-His for 24 min, FIG. 4J

Row | SMILES | EpEX-induced active β-catenin and Snail protein expression [1] | EpEX-mediated GSK3β activity [1] | EpEX-mediated GSK3β activity [2] | EpEX-mediated Snail protein expression [2]
1 | Cc1[nH]c(C=C2C(=O)Nc3ccc(S(=O)(=O)N(C)c4cccc(Cl)c4)cc32)c(C)c1C(=O)N1CCN(C)CC1 (stereo in doubt) [SU11274, (3Z)-N-(3-Chlorophenyl)-3-({3,5-dimethyl-4-[(4-methylpiperazin-1-yl)carbonyl]-1H-pyrrol-2-yl}methylene)-N-methyl-2-oxo-2,3-dihydro-1H-indole-5-sulfonamide] | abolish EpEX-induced active β-catenin and Snail protein expression | attenuate EpEX-mediated GSK3β activity | – | –
2 | CN(c1ncccc1CNc1nc(Nc2ccc3c(c2)CC(=O)N3)ncc1C(F)(F)F)S(C)(=O)=O [PF-562271] | – | – | attenuate EpEX-mediated GSK3β activity | attenuate
3 | N#CC(=C(/N)Sc1ccccc1N)/C(C#N)=C(\N)Sc1ccccc1N [U0126] | – | – | attenuate EpEX-mediated GSK3β activity | attenuate
